Experimental findings from US20230416684A1, “COMPOSITION FOR PREVENTING OR TREATING MUSCLE DISEASES, CONTAINING STEM CELLS IN WHICH GRO-ALPHA IS EXPRESSED OR GRO-ALPHA” (SAMSUNG LIFE PUBLIC WELFARE FOUNDATION, priority 2020, published 2023) are described below.

Assay [1] relates to C2C12 cells. As to the kind of experiment: Cell morphology and cell viability of lovastatin death-induced C2C12 cells treated with GRO-α at different concentrations. Type of assay: cell-based, mouse.
In assay [2] the test system is necrosis markers in C2C12 cells. As to the kind of experiment: Western blotting of necrosis markers in lovastatin death-induced C2C12 cells treated with GRO-α at different concentrations. The settings on record: FIGS. 4C and 4D. Type of assay: cell-based, mouse. On the procedure:
To confirm the inhibitory effects of the PL-MSCs and WJ-MSCs on the cell death, apoptosis markers and necrosis markers expressed in the mouse skeletal muscle myoblasts were confirmed by western blotting. In detail, after collecting the cells and breaking the cell membrane by using a buffer in which RIPA buffer and urea buffer were mixed at a ratio of 1:1, centrifugation was performed thereon, and the supernatant thus obtained was collected and subjected to the Bradford assay (Bio-rad, USA) to quantify proteins in the cells. After loading 20 μg of the proteins of from each sample on a gel, electrophoresis was performed on the gel by using SDS. After transferring the proteins to a polyvinylidene fluoride (PVDF) membrane, a 1× tris-buffered saline with 0.1% Tween 20 (TBST) solution to which 5% skimmed milk (BD Difco, USA) was added, followed by culturing at room temperature for 1 hour. Afterwards, the proteins were treated with PARP (1:1000, Cell signaling, USA), cleaved caspase-3 (1:1000, Cell signaling, USA), phospho-RIP3 (1:1000, Cell signaling, USA), and phospho-MLKL (1:1000, Cell signaling, USA) and beta actin (1:5000; Santa Cruz, USA) antibodies, followed by culturing overnight at 4° C. Next, the proteins were treated with secondary antibodies (anti-Rabbbit IgG-HRP; ABCIon, Korea) at room temperature for 1 hour, and blots were developed by using ECL (Bio-rad, USA). […]
A general note: In western blotting, separated proteins are transferred to a membrane and probed.

In assay [3] the test system is C2C12 cells. Briefly: Cell morphology and cell viability of lovastatin death-induced C2C12 cells treated with GSK′872 and GRO-α individually or in combination. Type of assay: cell-based, mouse. The note with it: GRO-α 200 μg/mL; for cell proliferation (cell morphology) / cell viability: GSK 3 μm pretreatment 3 hours; for cell proliferation (cell morphology): cultured for 48, FIG. 5A; for cell viability: cultured for 48, FIG. 5B. Here is the method: Inhibitory effects of GSK′827 and GRO-α, known as […] that block the RIP-3 pathway, on cell death of skeletal muscle myoblasts were compared. In detail, skeletal muscle myoblasts of the cell death-induced mouse by lovastatin treatment were pretreated with 3 μm of GSK′827 for 3 hours, followed by washing with 1×PBS. The medium was replaced by a serum-free medium, and GRO-α was diluted therein to a final concentration of […]/mL. Then, the cells were treated with GRO-α and GSK′827 individually or in combination, followed by culturing for 48 to observe the cell morphology.

The subject of assay [4] is necrosis markers in C2C12 cells. As to the kind of experiment: Western blotting of necrosis markers in lovastatin death-induced C2C12 cells treated with GSK′872 and GRO-α individually or in combination. Type of assay: cell-based, mouse. The settings on record: FIGS. 5C and 5D.
In assay [5] the test system is MDX mouse (a mouse model for duchenne muscular dystrophy). Briefly: Activity of creatine kinase in serum of MDX mouse injected with WJ-MSC or GRO-α. Type of assay: in vivo. The note with it: intravenous and intraperitoneal injection, serum after one week, FIG. 6A. On the procedure: (§1) Based on the results of Examples 1 to 3, the efficacy of GRO-α on prevention or treatment of muscle diseases was confirmed in an MDX mouse (a mouse model for duchenne muscular dystrophy). In detail, the MDX mouse was intravenously and intraperitoneally injected with each of WJ-MSC and GRO-α. After one week, blood was collected from the heart of the mouse, centrifuged at 15,500×g for 10 minutes to separate serum, and then, activity of creatine kinase was measured.

Another assay concerns phospho-MLKL. As to the kind of experiment: Western blot of phospho-MLKL in muscles of MDX mouse injected with WJ-MSCs or GRO-α. Type of assay: in vivo. The settings on record: muscles of MDX mouse after injection; protein level, FIG. 6B. On the procedure: as §1
(§2) The expression levels of necrosis markers in muscles of the […] injected with WJ-MSCs and GRO-α were confirmed in Example 4-1. In detail, the muscle tissue of the mouse was ground with liquid nitrogen into a minimum size in a mortar, added to an E-tube, and then subjected to sonication with lysis buffer (urea+RIPA=1:1). Afterwards, the supernatant was collected, and proteins in the tissue were quantified according to the Bradford assay (Bio-rad, USA). Then, proteins were detected by using western blot.

In a further assay the test system is phospho-RIP3. As to the kind of experiment: Western blot of phospho-RIP3 in muscles of MDX mouse injected with WJ-MSCs or GRO-α. Type of assay: in vivo. The settings on record: muscles of MDX mouse after injection; protein level, FIG. 6C. Here is the method:
as §1, §2

As for growth-regulated oncogene-alpha (GRO-α), the “cell viability, among concentration groups” value in the assay on C2C12 cells [1] (group treated with 100 ng/mL of GRO-α, FIG. 4B) was “the highest”. For the same compound, in the assay on C2C12 cells [1] (lovastatin death-induced C2C12 cells treated with GRO-α, FIG. 4A), the cell proliferation rate entry is reported as “increased”. Besides, in the assay with C2C12 cells [1] (lovastatin death-induced C2C12 cells, after 24 hours of treatment with GRO-α, FIG. 4B), the cell viability entry is “significantly increased”. Moreover, the “expression of necrosis markers” value in assay [2] was “inhibited the expression of the necrosis markers in a concentration-dependent manner”. In the assay on C2C12 cells [3] (FIG. 5B), the “cell viability compared to the group treated with GSK′872” value is on record as “high”. In the assay with C2C12 cells [3], the “cell proliferation (cell morphology)” value was “proliferated” and the cell viability result is “significant increase”. Besides, the “inhibitory effect on the expression of necrosis markers compared to GSK′872” value in assay [4] is “excellent inhibitory effect”. Also, the “expression of markers involved in necrosis compared to the control group” value in assay [4] (GRO-α 200 μg/mL) is “reduced the expression of all markers involved in necrosis”. Further, in assay [5], the “activity of creatine kinase, decrease” value was 75%. For the same compound, the “expression of phospho-MLKL, decrease” value in the assay with phospho-MLKL worked out at 76%. The “expression of phospho-RIP3, decrease” value in the assay with phospho-RIP3 is reported as 70%.

Take `CC(C)S(=O)(=O)c1ccc2nccc(Nc3ccc4scnc4c3)c2c1` [GSK′872, reference compound]: in the assay on C2C12 cells [3], the “cell proliferation (cell morphology)” value is “proliferated” and the cell viability result is listed as “significant increase”.
